Data on 5 compounds can be found in patent US20050256131A1, “Pharmaceutical active substance combination and the use thereof” (priority 2002, published 2005).

In series [1] the test system is Parkinson's disease. Description: clinical studies / series of tests on parkinsonian patients. It counts as in vivo, human. The settings on record: for antidepressant effect in parkinsonian patients: especially those treated in parallel with dopamine-containing medicaments; for necessary dose of dopamine to be taken: parkinsonian patients taking dopamine as supplement; for depot effect / release of the additionally taken dopamine in the patient's body: patients taking dopamine at the same time; for influence of additional intake on the effect of nefazodone or trazodone: taken in addition to nefazodone or trazodone. How it is done: The tablets normally comprise the active substance in an amount of 100 mg or 200 mg. […] For example, if a total dose of 500 mg a day is intended, it is possible to take 200 mg in the morning, 200 mg at midday and 100 mg in the evening.
The medicament with the active substance trazodone was administered to the patients in the evening. […] However, to date, for the aforementioned reasons, the patients have been given the dopamine to be administered in the evening in conjunction with a depot composition.

The conditions of series [2]: cited from earlier work; for side effects affecting the nervous system / psychomotor performance: manufacturer's information for use or statements in the literature.

“Also recorded” adds a separate entry of the source.

As for `CCc1nn(CCCN2CCN(c3cccc(Cl)c3)CC2)c(=O)n1CCOc1ccccc1` [nefazodone, 2-[3-[4-(3-chlorophenyl)-1-piperazinyl]propyl]-5-ethyl-4-(2-phenoxyethyl)-2H-1,2,4-triazol-3(4H)-one], in series [1], the “antidepressant effect in parkinsonian patients” value is on record as “particularly evident”, the “necessary dose of dopamine to be taken” value is recorded as “reduction in the necessary dose of dopamine” and the “depot effect / release of the additionally taken dopamine in the patient's body” value is “released more slowly”. Besides, in series [1] (human, in vivo), the tolerability result is “generally well tolerated”. Besides, the “daily dopamine dose as fraction of dose before treatment” value in series [1] (one patient with disease in advanced stage) is “about one third”. Further, in series [1] (parkinsonian patients), the “therapeutic effect in the treatment of the symptoms of Parkinson's disease” value (“therapeutic effect in the treatment” below) is given as “exceptionally good therapeutic effect”. Besides, the “dopamine dose necessary on additional intake, relative to dose previously necessary on treatment with dopamine alone” value in series [1] (parkinsonian patients regularly taking L-dopamine, simultaneous intake of nefazodone) was “one half or even one third”. Further, the “side effect of dopamine: uncontrolled motor activity in the patient” value in series [1] (patients on Parkinson's medicaments comprising dopamine) is recorded as “positively influenced”. Also, in series [2], the “side effects affecting the nervous system / psychomotor performance” value is “impairments of the coordination of movements (ataxia) and slowing of movements”.
Turning to `O=c1n(CCCN2CCN(c3cccc(Cl)c3)CC2)nc2ccccn12` [trazodone, 2-[3-[4-(3-chlorophenyl)-1-piperazinyl]propyl]-1,2,4-triazolo[4,3-a]pyridin-3(2H)-one], in series [1], the “antidepressant effect in parkinsonian patients” value was “particularly evident”, the “necessary dose of dopamine to be taken” value is reported as “reduction in the necessary dose of dopamine” and the “depot effect / release of the additionally taken dopamine in the patient's body” value is “causes a depot effect”. Moreover, in series [1] (parkinsonian patients), the “therapeutic effect in the treatment” value is listed as “exceptionally good therapeutic effect” and the “tiredness / sleep-promoting effect after intake” value is on record as “causes a certain tiredness; also recorded: sleep-promoting effect”.
In the case of `O=C(O)COCCN1CCN(C(c2ccccc2)c2ccc(Cl)cc2)CC1` (centres unmarked) [cetirizine], in series [1] (parkinsonian patients), the “therapeutic effect in the treatment” value is recorded as “particularly good effect” and the “influence of additional intake on the effect of nefazodone or trazodone” value was “enhances the effect of the nefazodone or trazodone”. The central sedative effect entry in series [2] (compared with other antihistamines, statements in the literature) was “only a slight central sedative effect”. The “side effects affecting the nervous system / psychomotor performance” value in series [2] is recorded as “reduction in psychomotor performance”.
Take `CC(=O)Oc1ccccc1C(=O)O` [acetylsalicylic acid]: the “influence of additional intake on the effect of nefazodone or trazodone” value in series [1] (parkinsonian patients) is “can also assist the mentioned positive effects of nefazodone”.
Still for that read-out and setting: to `Cn1c(=O)c2c(ncn2C)n(C)c1=O` [caffeine] belongs “assists the mentioned positive effect of nefazodone”.
